According to ChEMBL document CHEMBL2380205, “Discovery of a new class of natural product-inspired quinazolinone hybrid as potent antileishmanial agents” (J Med Chem, 2013):

Tests used:
[1] = Cytotoxicity against african green monkey Vero cells after 72 hrs by MTT assay; assay type: cell-based; conditions: chlorocebus sabaeus
Leishmania donovani [2] = test: Antileishmanial activity against promastigotes of Leishmania donovani MHOM/IN/60/Dd8 after 72 hrs by luciferase reporter gene assay; assay type: functional, organism-based; conditions: MHOM/IN/60/Dd8, 72 h
[3] = Selectivity index, ratio of CC50 for mouse J774A1 cells to IC50 for amastigotes of Leishmania donovani MHOM/IN/60/Dd8 infected in mouse J-774A.1 cells; assay type: functional, J774.A1
[4] = Cytotoxicity against mouse J774A1 cells after 72 hrs by MTT assay; assay type: cell-based, J774.A1
Leishmania donovani [5] = test: Antileishmanial activity against amastigotes of Leishmania donovani MHOM/IN/60/Dd8 infected in mouse J-774A.1 cells after 72 hrs by luciferase reporter gene assay; assay type: functional, organism-based; conditions: MHOM/IN/60/Dd8, J774.A1, 72 h
[6] = Lipophilicity, log P of the compound; assay type: physicochemical; conditions: octanol/water
Leishmania donovani [7] = test: Antileishmanial activity against amastigotes of Leishmania donovani MHOM/IN/60/Dd8 infected in golden hamster assessed as amastigote count at 30 mg/kg/day, po administered for 5 days measured on day 7 of post last dose by Giemsa staining; assay type: functional
Leishmania donovani [8] = test: Antileishmanial activity against amastigotes of Leishmania donovani MHOM/IN/60/Dd8 infected in golden hamster assessed as amastigote count at 50 mg/kg/day, ip administered for 5 days measured on day 7 of post last dose by Giemsa staining; assay type: functional; conditions: MHOM/IN/60/Dd8, ip, route intraperitoneal
Rattus norvegicus [9] = test: AUC (0 to t) in Sprague-Dawley rat at 10 mg/kg, po; assay type: ADME, organism-based, Plasma; parameters: dose 10 mg/kg, route oral; conditions: in vivo
Rattus norvegicus [10] = test: Clearance in Sprague-Dawley rat at 10 mg/kg, po; assay type: ADME, organism-based; parameters: dose 10 mg/kg, route oral; conditions: in vivo
[11] = Clearance in Sprague-Dawley rat at 10 mg/kg, iv; assay type: ADME, organism-based; parameters: dose 10 mg/kg, route intravenous; conditions: in vivo
[12] = AUC (0 to t) in Sprague-Dawley rat at 10 mg/kg, iv; assay type: ADME, organism-based; parameters: dose 10 mg/kg, route intravenous; conditions: plasma
[13] = Cmax in Sprague-Dawley rat at 10 mg/kg, iv; assay type: ADME, organism-based; parameters: dose 10 mg/kg, route intravenous; conditions: in vivo
[14] = Tmax in Sprague-Dawley rat at 10 […], iv; assay type: ADME, organism-based; conditions: in vivo
[15] = Volume of distribution at steady state in Sprague-Dawley rat at 10 mg/kg, iv; assay type: ADME, organism-based; parameters: dose 10 mg/kg, route intravenous; conditions: in vivo, read-out: Vdss
Albumin = Albumin (Bos taurus, UniProt P02769); test: Binding affinity to bovine serum albumin by fluorescence spectrophotometry; assay type: ADME; conditions: cattle, isolated protein
Leishmania [16] = test: Antileishmanial activity against amastigotes of Leishmania infected in mouse J-774A.1 cells assessed as decrease in […] production at IC50 after 24 hrs by ELISA relative to control; assay type: functional, J774.A1
[17] = Mean residence time in Sprague-Dawley rat at 10 mg/kg, iv; assay type: ADME, organism-based; parameters: dose 10 mg/kg, route intravenous; conditions: in vivo
[18] = Elimination half life in Sprague-Dawley rat at 10 mg/kg, iv; assay type: ADME, organism-based; parameters: dose 10 mg/kg, route intravenous; conditions: in vivo, read-out: beta t1/2 (converted)
[19] = Mean residence time in Sprague-Dawley rat at 10 mg/kg, po; assay type: ADME, organism-based; parameters: dose 10 mg/kg, route oral; conditions: in vivo
Leishmania [20] = test: Antileishmanial activity against amastigotes of Leishmania infected in mouse J-774A.1 cells assessed as increase in IL-12 production at IC50 after 24 hrs by ELISA relative to control; assay type: functional, J774.A1
Leishmania [21] = test: Antileishmanial activity against amastigotes of Leishmania infected in mouse J-774A.1 cells assessed as increase in TNF-alpha production at IC50 after 24 hrs by ELISA relative to control; assay type: functional, J774.A1
[22] = Oral bioavailability in Sprague-Dawley rat at 10 mg/kg; assay type: ADME, organism-based; conditions: in vivo
Leishmania [23] = test: Antileishmanial activity against amastigotes of Leishmania infected in mouse J-774A.1 cells assessed as decrease in IL-10 production at IC50 after 24 hrs by ELISA relative to control; assay type: functional, J774.A1
Leishmania [24] = test: Antileishmanial activity against amastigotes of Leishmania infected mouse J774A1 cells assessed as induction of nitric oxide generation after 24 hrs by ELISA (reference value: 4.65 uM); assay type: functional, J774.A1
Leishmania donovani [25] = test: Ratio of miltefosine IC50 to compound IC50 for amastigotes of Leishmania donovani MHOM/IN/60/Dd8 infected in mouse J-774A.1 cells; assay type: functional, J774.A1

Albumin, sequence (P02769 whole entry): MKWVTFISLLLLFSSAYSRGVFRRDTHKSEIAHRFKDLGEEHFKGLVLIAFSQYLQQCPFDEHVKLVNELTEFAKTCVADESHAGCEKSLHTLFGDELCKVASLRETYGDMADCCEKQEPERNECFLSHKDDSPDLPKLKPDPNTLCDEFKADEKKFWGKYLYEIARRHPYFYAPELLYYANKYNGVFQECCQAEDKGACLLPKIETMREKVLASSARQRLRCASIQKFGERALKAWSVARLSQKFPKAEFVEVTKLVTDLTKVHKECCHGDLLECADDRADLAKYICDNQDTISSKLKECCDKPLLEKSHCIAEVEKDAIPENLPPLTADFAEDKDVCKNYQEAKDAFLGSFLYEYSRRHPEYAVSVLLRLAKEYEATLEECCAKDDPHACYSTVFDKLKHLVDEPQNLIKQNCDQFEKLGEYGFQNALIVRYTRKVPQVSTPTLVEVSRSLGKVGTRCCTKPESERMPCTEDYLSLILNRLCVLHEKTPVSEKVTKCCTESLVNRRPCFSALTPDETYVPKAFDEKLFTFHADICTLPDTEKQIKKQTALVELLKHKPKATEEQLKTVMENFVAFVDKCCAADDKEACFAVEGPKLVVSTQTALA

Row | IC50 (Leishmania donovani [2]) [µM] | IC50 (Leishmania donovani [5]) [µM] | logP [6] | Compound | CC50 at 72 h [1] [µM] | Ratio CC50/IC50 [3] | CC50 at 72 h [4] [µM] | inhibition in vivo at 50 mg/kg/day (Leishmania donovani [8]) [%] | also measured
1 | 8.86 | 8.87 |  | CCCNc1nc(NCCC)nc(Nc2ccc(C3(C)NC(=O)c4ccccc4N3)cc2)n1 (stereo not drawn) | > 400 | >45.09 | > 400 |  | 
2 | 24.1 | 8.46 |  | CC1(c2ccc(NC(c3ccc(Br)cc3)c3nnnn3C(C)(C)C)cc2)NC(=O)c2ccccc2N1 (stereo not drawn) | > 400 | 47.28 | 400 |  | 
3 | > 40 | 13.5 |  | CC(C)(C)NC(=O)C(c1ccc(Cl)cc1)N(C(=O)c1cccc(Cl)c1)c1ccc(C2(C)NC(=O)c3ccccc3N2)cc1 (stereo not drawn) | > 400 | >29.67 | > 400 |  | 
4 | > 40 | 12 |  | CC(C)c1ccc(C(C(=O)NC(C)(C)C)N(C(=O)c2cccc(Cl)c2)c2ccc(C3(C)NC(=O)c4ccccc4N3)cc2)cc1 (stereo not drawn) | > 400 | >33.25 | > 400 |  | 
5 | 2.82 | 7.02 |  | Nc1nc(-c2ccc(Br)cc2)cc(-c2ccc(C3NC(=O)c4ccccc4N3)cc2)n1 (stereo not drawn) | > 400 | 17.82 | 125 |  | 
6 | 6.38 | 6.72 | 6.49 | CC1(c2ccc(Nc3nc(NCc4ccccc4)nc(NCc4ccccc4)n3)cc2)NC(=O)c2ccccc2N1 (stereo not drawn) | 359 | >59.52 | > 400 | 44.8 | 
7 | > 40 | 4.39 | 7.19 | CC1(c2ccc(Nc3nc(N4CCc5ccccc5C4)nc(N4CCc5ccccc5C4)n3)cc2)NC(=O)c2ccccc2N1 (stereo not drawn) | > 400 | >91.11 | > 400 | 80.9 | AUCt (Rattus norvegicus [9]): 0.716 µg·h/mL; CL (Rattus norvegicus [10]): 0.36 L/h/kg; clearance [11]: 0.33 L/h/kg; AUC(0-t) [12]: 24.3 µg·h/mL; Cmax [13]: 63.3 µg/mL; Tmax [14]: 4.8 min; Vd [15]: 1.95 L/kg; KSV (Albumin): 6 ×10⁴ L/mol; Kq (Albumin): 6 ×10¹² L/mol/s; fold change (FC) (Leishmania [16]): >3; MRT [17]: 5.88 h; half-life [18]: 12.8 h; MRT [19]: 8.44 h; fold change (FC) (Leishmania [20]): >8; fold change (FC) (Leishmania [21]): 11; bioavailability [22]: 2.94%; fold change (FC) (Leishmania [23]): 5; Activity (Leishmania [24]): 22.58 µM
8 | 7.46 | 2.42 | 7.57 | CCCCCNc1nc(NCCCCC)nc(Nc2ccc(C3(C)NC(=O)c4ccccc4N3)cc2)n1 (stereo not drawn) | > 400 | >165.29 | > 400 | 43 | 
9 | 4.23 | 4.43 |  | COc1cccc(-c2cc(-c3ccc(C4NC(=O)c5ccccc5N4)cc3)nc(N)n2)c1OC (stereo not drawn) | > 400 | >90.29 | > 400 |  | 
10 | 4.02 | 7.76 | 6.03 | CC(C)c1ccc(C(Nc2ccc(C3(C)NC(=O)c4ccccc4N3)cc2)c2nnnn2C(C)(C)C)cc1 (stereo not drawn) | > 400 | >51.54 | > 400 | 54 | 
11 | 1.75 | 0.65 |  | CN1CCN(c2ccc(-c3cc(-c4ccc(C5NC(=O)c6ccccc6N5)cc4)nc(N)n3)cc2)CC1 (stereo not drawn) | 8.32 | 15.16 | 10.2 |  | Ratio IC50 (Leishmania donovani [25]): 13

Row | Compound | IC50 (Leishmania donovani [2]) [µM] | IC50 (Leishmania donovani [5]) [µM] | logP [6] | CC50 at 72 h [1] [µM] | Ratio CC50/IC50 [3] | CC50 at 72 h [4] [µM] | inhibition in vivo at 50 mg/kg/day (Leishmania donovani [8]) [%] | also measured
12 | CCCCCCCCCCCCCCCCOP(=O)([O-])OCC[N+](C)(C)C [MILTEFOSINE] | 1.05 | 8.4 | -0.21 |  | 1.48 | 12.4 |  | inhibition in vivo at 30 mg/kg/day (Leishmania donovani [7]): 98.1%
